Entries after “also recorded” stand apart in the source; their conditions may differ. Where two headings read alike, the source gives them in different places.
Tests used:
[1] = target: T1, strychnine-insensitive glycine binding site of the NMDA receptor (Rattus norvegicus, UniProt P35439); experiment: Inhibition of [3H]glycine specific binding (strychnine-insensitive) in rat cerebral cortex membranes; conditions: 10 uM compound
T1 construct: Membranes were prepared from rat cerebral cortex; from tissue; host or cells: rat cerebral cortex, "buffy coat" membranes
Experimental: Binding Studies--Inhibition of [^3 H]glycine specific binding was assayed using [^3 H]glycine (43 Ci/mmol) obtained from DuPont-New England Nuclear. […] Membranes were prepared from rat cerebral cortex and assays were conducted in Na-free 50 mM HEPES (Sigma) at pH 7.4. Membranes were incubated in a final volume of 1 ml with 20 nM [^3 H]glycine and a 10 uM concentration of the test compound. Although experience has shown that [^3 H]glycine binding in this preparation is strychnine insensitive, 10 uM strychnine was added to the assay mixtures to eliminate the possibility that any effects studied could be mediated through a strychnine-sensitive process. Incubation was continued for 20 min at 4° C. Non-specific binding was determined in the presence of 1 mM glycine and subtracted. All conditions were tested in triplicate in 3 different assays. Binding was terminated using a Brandel M-24C cell harvester employing rapid filtration through GF/C glass fiber filters pre-soaked in 1% (V/V) polyethylenimine. Filters were washed twice with 5 ml buffer cooled to 4° C. Radioactivity bound to the filters was determined with a Beckman LS-500OTD liquid scintillation counter.

[2] = tested on: seizures induced by electroshock and pentylenetetrazole; experiment: Anticonvulsant testing, overall (MES and Met); assay type: in vivo, male Carworth Farms number-1 mice; conditions: for CLASS: Phase I Identification: mice, i.p., classes not defined in the patent
Experimental: (§1) Compounds were screened for anticonvulsant activity in male Carworth Farms number-1 mice. Test solutions of all compounds were prepared in 30% polyethylene glycol 400, and animals were dosed intraperitoneally at either 30 minutes or 4 hours prior to testing. Testing was conducted on four mice at each of three dose levels (30, 100, and 300 mg/kg).
(§2) Maximal electroshock seizures (MES) were elicited with a 60 cycle alternatiing current of 50-mA intensity (five to seven times that necessary to evoke minimal electroshock threshold seizures). Current was delivered via corneal electrodes for 0.2 s. A drop of 0.9% saline was instilled in the eye prior to application of electrodes. Abolition of the hindlimb tonic extension component of the seizure was defined as protection in the MES test.
(§3) In the subcutaneous pentylenetetrazole (Metrazol) seizure threshold test(met), 85 mg/kg pentylenetetrazole was administered as a 0.5% solution in the posterior midline. Protection in this test was defined as a failure to observe a single episode of clonic spasms of at least 5 s duration during the 30 minute period following administration of the convulsive agent.
(§4) Biological testing--Compounds were screened for anticonvulsant activity in male Carworth Farms number-one mice. Test solutions of all compounds were prepared in 30% polyethylene glycol 400, and animals were dosed intraperitoneally at either 30 min or 4 h prior to testing. Testing was conducted on four mice at each of three dose levels (30, 100, and 300 mg/kg).
(§5) Maximal electroshock seizures (MES) were elicited with a 60 cycle alternating current of 50-mA intensity (five to seven times that necessary to evoke minimal electroshock threshold seizures). Current was delivered via corneal electrodes for 0.2 s. A drop of 0.9% saline was instilled in the eye prior to application of electrodes. Abolition of the hindlimb tonic extension component of the seizure was defined as protection in the MES test.
(§6) In the subcutaneous pentylenetetrazole (Metrazol) seizure threshold test (Met), 85 mg/kg pentylenetetrazole was administered as a 0.5% solution in the posterior midline. Protection in this test was defined as a failure to observe a single episode of clonic spasms of at least 5 s duration during the 30 min period following administration of the convulsive agent.

[3] = tested on: pentylenetetrazole (Metrazol) induced seizures; experiment: Subcutaneous pentylenetetrazole (Metrazol) seizure threshold test (Met) in mice; assay type: in vivo, male Carworth Farms number-1 mice; conditions: for minimal effective dose: Mus musculus, ip; for Sc MET: mice i.p.; for (Maximum Ineffective) Intraperitoneal Dose, Met: Table 7, value in parentheses = maximum ineffective dose
Experimental: as §1, §3, §4, §6

[4] = tested on: neurological deficit (rotorod); experiment: Rotorod test for neurological deficit (TOX) in mice; assay type: in vivo, male Carworth Farms number-1 mice
Experimental: as §1
Animals were also tested for neurological deficit using the rotorod. After treatment, the animal was placed on a 1 inch diameter knurled plastic rod rotating at 6 rpm. Neurologic deficit was defined as the failure of the animal to remain on the rod for 1 minute.
as §4
Animals were also tested for neurological deficit using the rotorod. After treatment, the animal was placed on a 1 inch diameter knurled plastic rod rotating at 6 rpm. Neurologic deficit was defined as the failure of the animal to remain on the rod for 1 min.

[5] = tested on: maximal electroshock seizures (MES); experiment: animal or person; assay type: in vivo, male Carworth Farms number-1 mice; conditions: for MES: mice i.p.; for minimal effective dose: Mus musculus, ip
Experimental: as §1, §2, §4, §5

[6] = Table 7, value without parentheses = effective dose, read-out: Effective Intraperitoneal Dose, Met
[7] = mice, intraperitoneal, read-out: dose active in Met test
[8] = Table 7, value without parentheses = effective dose (neurologic deficit)

| Structure (SMILES) | [3H]glycine binding inhibition [1] | anticonvulsant activity (words) ([2]; mice, intraperitoneal) | CLASS [2] | Sc MET ([3]; 30 minutes, 30 mg/kg) | Sc MET ([3]; 30 minutes, 100 mg/kg) | Sc MET ([3]; 30 minutes, 300 mg/kg) | Sc MET ([3]; 4 hours, 30 mg/kg) | Sc MET ([3]; 4 hours, 100 mg/kg) | Sc MET ([3]; 4 hours, 300 mg/kg) | MES ([5]; 30 minutes, 30 mg/kg) | MES ([5]; 30 minutes, 100 mg/kg) | MES ([5]; 30 minutes, 300 mg/kg) | MES ([5]; 4 hours, 30 mg/kg) | MES ([5]; 4 hours, 100 mg/kg) | MES ([5]; 4 hours, 300 mg/kg) | further results |
| --- | --- | --- | --- | --- | --- | --- | --- | --- | --- | --- | --- | --- | --- | --- | --- | --- |
| CCOC(=O)c1cccc(C(=O)OCC)n1 [2,6-pyridine-di-(ethyl carboxylate), 2,6-pyridine-di(ethyl carboxylate)] | potent [^3 H]glycine displacement | had anticonvulsant activity |  |  |  |  |  |  |  |  |  |  |  |  |  | [3H]glycine binding inhibition ([1]; listed as diethyl ester of pyridine-2,6-dicarboxylic acid): inhibited glycine binding; minimal effective dose ([2]; Mus musculus, ip, mice, intraperitoneal, read-out: dose level with anticonvulsant activity (test not given)): 100 mg/kg; minimal effective dose [3, 6]: 100 mg/kg; minimal effective dose [3, 7]: 100 mg/kg; Effective Intraperitoneal Dose, Rotorod ([4]; mouse, in vivo, ip): 300 mg/kg; dose causing neurological deficit on rotorod ([4]; mouse, in vivo, ip): 300 mg/kg |
| CCOC(=O)c1cc2cc(O)ccc2[nH]1 [5-hydroxyl-2-ethyl ester] | binding activity | no CNS effects |  |  |  |  |  |  |  |  |  |  |  |  |  |  |
| CCCCOC(=O)c1cc(NC)c2c(Cl)cc(Cl)cc2n1 [Butyl 4-Methylamino-5,7-dichloro-2-quinoline Carboxylate] |  | inactive | 31 | 0/1 | 0/1 | 0/1 | 0/1 | 0/1 | 0/1 | 0/1 | 0/3 | 0/1 | 0/1 | 0/3 | 0/1 | anticonvulsant activity (words) ([2]; mice, intraperitoneal, listed as 5,7-di-Cl-4-methylamino-2-butyl ester): inactive in anticonvulsant testing; anticonvulsant activity (words) ([2]; mice, intraperitoneal, listed as ester-4-methylamino-5,7-dichloro quinoline-2-carboxylate n-butyryl): lack of anticonvulsant activity |
| COc1ccc2[nH]c(C(=O)O)cc2c1 [5-methoxy-indole-2-COOH] |  | no anticonvulsant activity |  |  |  |  |  |  |  |  |  |  |  |  |  | (Maximum Ineffective) Intraperitoneal Dose, Met [3]: 300 mg/kg; Effective Intraperitoneal Dose, Rotorod ([4]; mouse, in vivo, ip): 300 mg/kg |
| O=C(O)c1cc2cc(Cl)ccc2[nH]1 [5-Cl-indole-2-COOH, 5-chloro-indole-2-carboxylic acid] | binding competition similar to that seen with the 5-fluoro derivative |  |  |  |  |  |  |  |  |  |  |  |  |  |  | minimal effective dose [3, 6]: 100 mg/kg; minimal effective dose [3, 7]: 100 mg/kg; Met activity ([3]; mice, intraperitoneal): Met protection; Effective Intraperitoneal Dose, Rotorod ([4]; mouse, in vivo, ip): 300 mg/kg; dose causing neurological deficit on rotorod ([4]; mouse, in vivo, ip): 300 mg/kg |
| CCOC(=O)c1cc2cc(OC)ccc2[nH]1 [5-methoxy-indole-2-ethyl ester, 5-methoxy-indole-2-ethyl carboxylate] | did not compete for [^3 H]glycine binding; also recorded: did not inhibit [^3 H]glycine binding |  |  |  |  |  |  |  |  |  |  |  |  |  |  | minimal effective dose [3, 6]: 100 mg/kg; minimal effective dose [3, 7]: 100 mg/kg; minimal effective dose ([5]; Table 7, value without parentheses = effective dose, read-out: Effective Intraperitoneal Dose, MES): 300 mg/kg; minimal effective dose ([5]; mice, intraperitoneal, read-out: dose active in MES test): 300 mg/kg; Effective Intraperitoneal Dose, Rotorod [4, 8]: 300 mg/kg; dose causing neurological deficit on rotorod ([4]; mice, intraperitoneal): 300 mg/kg |
| COC(=O)c1cc(N)c2c(Cl)cc(Cl)cc2n1 [4-amino-5,7-dichloro-2-quinoline carboxylate methyl ester] |  |  | 1 | 0/1 | 1/1 | 0/1 | 0/1 | 0/1 | 0/1 | 0/1 | 0/3 | 0/1 | 0/1 | 1/3 | 1/1 |  |
| Nc1cc(C(=O)O)nc2cc(Cl)cc(Cl)c12 [4-amino-5,7-dichloro-2-quinoline carboxylate acid] |  | lack of anticonvulsive activity | 3 | 0/1 | 0/1 | 0/1 | 0/1 | 0/1 | 0/1 | 0/1 | 0/3 | 0/1 | 0/1 | 0/3 | 0/1 |  |
| CCOC(=O)c1cc(O)c2c(Cl)cc(Cl)cc2n1 [5,7 0-di-Cl-2-ethyl ester, 5,7-dichloro-kynurenate ethyl ester] |  | inactive |  |  |  |  |  |  |  |  |  |  |  |  |  |  |
| O=C(O)c1cccc(C(=O)O)n1 [2,6-pyridine dicarboxylic acid, pyridine-2,6-dicarboxylic acid] | no glycine displacement; also recorded: did neither | did neither |  |  |  |  |  |  |  |  |  |  |  |  |  | (Maximum Ineffective) Intraperitoneal Dose, Met [3]: 300 mg/kg; Effective Intraperitoneal Dose, Rotorod [4, 8]: 300 mg/kg; crossing of the blood-brain barrier ([4]; evidenced by the rotorod test): did cross the blood-brain barrier; dose causing neurological deficit on rotorod ([4]; mice, intraperitoneal): 300 mg/kg |
| Cc1cc2c(O)cc(C(=O)O)nc2cc1Cl [6-CH3-7-Cl-2-COOH] | glycine-binding inhibition | no anticonvulsant activity |  |  |  |  |  |  |  |  |  |  |  |  |  |  |
| CNc1cc(C(=O)OC)nc2cc(Cl)cc(Cl)c12 [4-methylamino-5,7-dichloro quinoline 2-carboxylate methyl ester] |  | inactive | 3 | 0/1 | 0/1 | 0/1 | 0/1 | 0/1 | 0/1 | 0/1 | 0/3 | 0/1 | 0/1 | 0/3 | 0/1 | anticonvulsant activity (words) ([2]; mice, intraperitoneal, listed as 4-methylamino-5,7-dichloro quinoline 2-carboxylate methyl ester): lack of anticonvulsant activity; anticonvulsant activity (words) ([2]; mice, intraperitoneal, listed as 5,7-di-Cl-4-methylamino-2-methyl ester): inactive in anticonvulsant testing |
| CCOC(=O)c1cc2cc(Cl)ccc2[nH]1 [5-Cl-2-ethyl ester] | inactive | inactive; also recorded: abolished activity |  |  |  |  |  |  |  |  |  |  |  |  |  |  |
